{"source": "patent US7989438B2", "about": "“Therapeutic compounds” (Istituto di Ricerche di Biologia Molecolare P. Angeletti SpA, priority 2007, dated 2011)", "tested_on": "HCV subgenomic replication", "test": "Cell based HCV replication assay (subgenomic replicon in Huh-7 cells, NS3 Cell-ELISA)", "conditions": "activity ranges", "text": "Cell clones that stably maintain subgenomic HCV replicon were obtained by transfecting Huh-7 cells with an RNA replicon identical to I377neo/NS3-3′/wt described by Lohmann et al. (1999) (EMBL-genbank No. AJ242652), followed by selection with neomycin sulfate (G418). Viral replication was monitored by measuring the expression of the NS3 protein by an ELISA assay performed directly on cells grown in 96 wells microtiter plates (Cell-ELISA) using the anti-NS3 monoclonal antibody 10E5/24 (as described in published International application WO 02/59321). Cells were seeded into 96 well plates at a density of 10^4 cells per well in a final volume of 0.1 ml of DMEM/10% FCS. Two hours after plating, 50 μl of DMEM/10% FCS containing a 3× concentration of inhibitor were added, cells were incubated for 96 hours and then fixed for 10 minutes with ice-cold isopropanol. Each condition was tested in duplicate and average absorbance values were used for calculations. The cells were washed twice with PBS, blocked with 5% non-fat dry milk in PBS+0.1% Triton X100+0.02% SDS (PBSTS) and then incubated o/n at 4° C. with the 10E5/24 mab diluted in Milk/PBSTS. After washing 5 times with PBSTS, the cells were incubated for 3 hours at room temperature with Fc specific anti-mouse IgG conjugated to alkaline phosphatase (Sigma), diluted in Milk/PBSTS. After washing again as above, the reaction was developed with p-Nitrophenyl phosphate disodium substrate (Sigma) and the absorbance at 405/620 nm read at intervals. For calculations, we used data sets where samples incubated without inhibitors had absorbance values comprised between 1 and 1.5. The inhibitor concentration that reduced by 50% the expression of NS3 (IC50) was calculated by fitting the data to the Hill equation, Fraction inhibition=1−(Ai−b)/(A0−b)=[I]^n/([I]^n+[…]) where: • Ai=absorbance value of HBI10 cells supplemented with the indicated inhibitor concentration. • A0=absorbance value of HBI10 cells incubated without inhibitor. • b=absorbance value of Huh-7 cells plated at the same density in the same microtiter plates and incubated without inhibitor. • n=Hill coefficient.", "key": {"[1]": {"conditions": "Hepatitis C virus, Table A, Huh-7 replicon cells, 96 hours, read-out: IC50 (nM), Inhibition of HCV subgenomic replication"}, "[2]": {"conditions": "Table A, Huh-7 replicon cells, 96 hours, read-out: IC50 (nM), Inhibition of HCV subgenomic replication"}, "[3]": {"conditions": "Table 5, various macrocycles, read-out: IC50* (nM), Inhibition of HCV subgenomic replication"}, "[4]": {"conditions": "Table 2, various macrocycles, read-out: IC50* (nM), Inhibition of HCV subgenomic replication"}, "[5]": {"conditions": "Table 4, various macrocycles, read-out: IC50* (nM), Inhibition of HCV subgenomic replication"}}, "note": "Where two headings read alike, the source gives them in different places.", "data": [{"molecule": "CN1CCN2CCN(CC2)S(=O)(=O)NC(=O)c2ccc3c(C4CCCCC4)c4n(c3c2)C[C@@H]1COc1ccccc1-4", "note": "[Compound A6, (20R)-30-cyclohexyl-21-methyl-18-oxa-2-thia-1,3,10,21,24-pentaazahexacyclo[22.2.2.1^5,9.1^8,11.1^10,20.0^12,17]hentriaconta-5(31),6,8,11(30),12,14,16-heptaen-4-one 2,2-dioxide]", "values": [{"measurement": "IC50", "setting": "[1]", "result": "25 to 150", "unit": "nM"}]}, {"molecule": "(7R)-14-cyclohexyl-4-methoxy-18,22-dimethyl-7,8-dihydro-6H-7,11-(ethanoiminopropanoiminothioiminomethano)indolo[1,2-e][1,5]benzoxazocin-15-one 17,17-dioxide [Compound A33]", "values": [{"measurement": "IC50", "setting": "[2]", "result": "< 25", "unit": "nM"}]}, {"molecule": "CN1[C@H]2CCN(CCN(C)S(=O)(=O)NC(=O)c3ccc4c(C5CCCCC5)c5n(c4c3)C[C@@H]1COc1ccccc1-5)C2", "note": "[Compound A21, (16S,18R)-29-cyclohexyl-10,17-dimethyl-20-oxa-9-thia-1,8,10,13,17-pentaazahexacyclo[16.9.1.1^2,6.1^3,27.1^13,16.0^21,26]hentriaconta-2(31),3,5,21,23,25,27(29)-heptaen-7-one 9,9-dioxide]", "values": [{"measurement": "IC50", "setting": "[1]", "result": "< 25", "unit": "nM"}]}, {"molecule": "CC(C)N1CCCN(C)S(=O)(=O)NC(=O)c2ccc3c(C4CCCCC4)c4n(c3c2)CC(CC1)COc1ccccc1-4", "note": "(single isomer, unassigned) [Example 506, (7R) or (7S)-14-cyclohexyl-22-isopropyl-18-methyl-7,8-dihydro-6H-7,11-(ethanoiminopropanoiminothioiminomethano)indolo[1,2-e][1,5]benzoxazocin-15-one 17,17-dioxide]", "values": [{"measurement": "IC50", "setting": "[3]", "result": "< 25", "unit": "nM"}]}, {"molecule": "CN1CCN(C)C2COc3ccc(F)cc3-c3c(C4CCCCC4)c4ccc(cc4n3C2)C(=O)NS(=O)(=O)N(C)CC1", "note": "[Example 202, (7R)-14-cyclohexyl-2-fluoro-18,21,24-trimethyl-7,8-dihydro-6H-7,11-(epiminoethanoiminoethanoiminothioiminomethano)-indolo[1,2-e][1,5]benzoxazocin-15-one 17,17-dioxide]", "values": [{"measurement": "IC50", "setting": "[4]", "result": "< 25", "unit": "nM"}]}, {"molecule": "CC(C)CN1CCN(C)C2COc3ccccc3-c3c(C4CCCCC4)c4ccc(cc4n3C2)C(=O)NS(=O)(=O)N(C)CC1", "note": "[Example 104, (7R)-14-cyclohexyl-21-isobutyl-18,24-dimethyl-7,8-dihydro-6H-7,11-(epiminoethanoiminoethanoiminothioiminomethano)-indolo[1,2-e][1,5]benzoxazocin-15-one 17,17-dioxide]", "values": [{"measurement": "IC50", "setting": "Table 1, 16 membered macrocycles, read-out: IC50* (nM), Inhibition of HCV subgenomic replication", "result": "< 25", "unit": "nM"}]}, {"molecule": "CN1CCN(C)[C@H]2COc3c(CC4CC4)cccc3-c3c(C4CCCCC4)c4ccc(cc4n3C2)C(=O)NS(=O)(=O)N(C)CC1", "note": "[Example 407, (7R)-14-cyclohexyl-4-(cyclopropylmethyl)-18,21,24-trimethyl-7,8-dihydro-6H-7,11-(epiminoethanoiminoethanoiminothioiminomethano)-indolo[1,2-e][1,5]benzoxazocin-15-one 17,17-dioxide]", "values": [{"measurement": "IC50", "setting": "[5]", "result": "< 25", "unit": "nM"}]}, {"molecule": "CCN1CCN(C)[C@H]2COc3cc(OCc4ccccn4)ccc3-c3c(C4CCCCC4)c4ccc(cc4n3C2)C(=O)NS(=O)(=O)N(C)CC1", "note": "[Example 211, (7R)-14-cyclohexyl-21-ethyl-18,24-dimethyl-3-(pyridin-2-ylmethoxy)-7,8-dihydro-6H-7,11-(epiminoethanoiminoethanoiminothioiminomethano)-indolo[1,2-e][1,5]benzoxazocin-15-one 17,17-dioxide]", "values": [{"measurement": "IC50", "setting": "[4]", "result": "< 25", "unit": "nM"}]}, {"molecule": "CN1CCCN(CCO)CCC2COc3ccccc3-c3c(C4CCCCC4)c4ccc(cc4n3C2)C(=O)NS1(=O)=O", "note": "(single isomer, unassigned) [Example 507, (7R) or (7S)-14-cyclohexyl-22-(2-hydroxyethyl)-18-methyl-7,8-dihydro-6H-7,11-(ethanoiminopropanoiminothioiminomethano)indolo[1,2-e][1,5]benzoxazocin-15-one 17,17-dioxide]", "values": [{"measurement": "IC50", "setting": "[3]", "result": "< 25", "unit": "nM"}]}, {"molecule": "CN1CCNCCN(C)S(=O)(=O)NC(=O)c2ccc3c(C4CCCCC4)c4n(c3c2)CC1COc1ccccc1-4", "note": "[Compound A1, (7R)-14-cyclohexyl-18,24-dimethyl-7,8-dihydro-6H-7,11-(epiminoethanoiminoethanoiminothioiminomethano)indolo[1,2-e][1,5]benzoxazocin-15-one 17,17-dioxide]", "values": [{"measurement": "IC50", "setting": "[2]", "result": "< 25", "unit": "nM"}]}, {"molecule": "CN1CCCN(C)S(=O)(=O)NC(=O)c2ccc3c(C4CCCCC4F)c4n(c3c2)CC(CC1)COc1ccccc1-4", "note": "(single isomer, unassigned) [Example 501, 14-[(1R,2S) or (1S,2R)-2-fluorocyclohexyl]-18,22-dimethyl-7,8-dihydro-6H-7,11-(ethanoiminopropanoiminothioiminomethano)indolo[1,2-e][1,5]benzoxazocin-15-one 17,17-dioxide]", "values": [{"measurement": "IC50", "setting": "[3]", "result": "25 to 150", "unit": "nM"}]}, {"molecule": "O=C1NS(=O)(=O)N2CCN(CCN(CCF)[C@H]3COc4ccccc4-c4c(C5CCCCC5)c5ccc1cc5n4C3)CC2", "note": "[Example 308, (20R)-30-cyclohexyl-21-(2-fluoroethyl)-18-oxa-2-thia-1,3,10,21,24-pentaazahexacyclo[22.2.2.1^5,9.1^8,11.1^10,20.0^12,17]hentriaconta-5(31),6,8,11(30),12,14,16-heptaen-4-one 2,2-dioxide]", "values": [{"measurement": "IC50", "setting": "Hepatitis C virus, Huh-7, Table 3, various macrocycles, read-out: IC50* (nM), Inhibition of HCV subgenomic replication", "result": "25 to 150", "unit": "nM"}]}, {"molecule": "COc1cccc2c1OCC1Cn3c-2c(C2CCCCC2)c2ccc(cc23)C(=O)NS(=O)(=O)N(C)CCOCCN1C", "note": "[Example 519, (7R)-14-cyclohexyl-4-methoxy-18,24-dimethyl-7,8-dihydro-6H-7,11-(epiminoethanooxyethanoiminothioiminomethano)indolo[1,2-e][1,5]benzoxazocin-15-one 17,17-dioxide]", "values": [{"measurement": "IC50", "setting": "[3]", "result": "25 to 150", "unit": "nM"}]}, {"molecule": "CN1CCNCCN(C)S(=O)(=O)NC(=O)c2ccc3c(C4CCCCC4)c4n(c3c2)CC1COc1ccccc1-4", "note": "[Compound A15, (7S)-14-cyclohexyl-18,24-dimethyl-7,8-dihydro-6H-7,11-(epiminoethanoiminoethanoiminothioiminomethano)indolo[1,2-e][1,5]benzoxazocin-15-one 17,17-dioxide]", "values": [{"measurement": "IC50", "setting": "[2]", "result": "150 to 500", "unit": "nM"}]}, {"molecule": "CC(C)N1CCCC2COc3ccccc3-c3c(C4CCCCC4)c4ccc(cc4n3C2)C(=O)NS(=O)(=O)N(C)CC1", "note": "(stereo not shown) [Example 509, 14-cyclohexyl-21-isopropyl-18-methyl-7,8-dihydro-6H-7,11-(propanoiminoethanoiminothioiminomethano)indolo[1,2-e][1,5]benzoxazocin-15-one 17,17-dioxide]", "values": [{"measurement": "IC50", "setting": "[3]", "result": "< 25", "unit": "nM"}]}, {"molecule": "CCN1CCN(C)C2COc3c(cccc3C(F)(F)F)-c3c(C4CCCCC4)c4ccc(cc4n3C2)C(=O)NS(=O)(=O)N(C)CC1", "note": "[Example 406, (7R)-14-cyclohexyl-21-ethyl-18,24-dimethyl-4-(trifluoromethyl)-7,8-dihydro-6H-7,11-(epiminoethanoiminoethanoiminothioiminomethano)-indolo[1,2-e][1,5]benzoxazocin-15-one 17,17-dioxide]", "values": [{"measurement": "IC50", "setting": "[5]", "result": "150 to 500", "unit": "nM"}]}, {"molecule": "O=C1NS(=O)(=O)N2CCCN(CCCC3COc4ccccc4-c4c(C5CCCCC5)c5ccc1cc5n4C3)CC2", "note": "(stereo not shown) [Example 508, 31-cyclohexyl-18-oxa-2-thia-1,3,10,24-tetraazahexacyclo[22.3.2.1^5,9.1^8,11.1^10,20.0^12,17]dotriaconta-5(32),6,8,11(31),12,14,16-heptaen-4-one 2,2-dioxide]", "values": [{"measurement": "IC50", "setting": "Hepatitis C virus, Huh-7, Table 5, various macrocycles, read-out: IC50* (nM), Inhibition of HCV subgenomic replication", "result": "25 to 150", "unit": "nM"}]}, {"molecule": "Cc1cccc2c1OCC1Cn3c-2c(C2CCCCC2)c2ccc(cc23)C(=O)NS(=O)(=O)N(C)CCNCCN1C", "note": "[Example 515, (7R)-14-cyclohexyl-4,18,24-trimethyl-7,8-dihydro-6H-7,11-(epiminoethanoiminoethanoiminothioiminomethano)-indolo[1,2-e][1,5]benzoxazocin-15-one 17,17-dioxide]", "values": [{"measurement": "IC50", "setting": "[3]", "result": "< 25", "unit": "nM"}]}, {"molecule": "COc1ccc2c(c1)OCC1CCN(C)CCCN(C)S(=O)(=O)NC(=O)c3ccc4c(C5CCCCC5)c-2n(c4c3)C1", "note": "(single isomer, unassigned; (-)) [Compound A35, (−)-14-cyclohexyl-3-methoxy-18,22-dimethyl-7,8-dihydro-6H-7,11-(ethanoiminopropanoiminothioiminomethano)indolo[1,2-e][1,5]benzoxazocin-15-one 17,17-dioxide]", "values": [{"measurement": "IC50", "setting": "[2]", "result": "< 25", "unit": "nM"}]}]}
